Experiments:
[1] = test system: Bj-5ta; test: MTT assay, BJ-5ta non-cancerous fibroblasts; assay type: cell-based, human; settings: non-cancerous dermal fibroblasts, 48 h incubation
Method in brief: (§1)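 Human MCF-10A breast epithelial and BJ-5ta dermal fibroblast cells seeded 24 h, then exposed to compounds at 5, 10, 20 and 50 µmol/L for 48 h at 37 °C. MTT with SDS solubilization, absorbance 540 nm. IC50 from nonlinear regression, ≥3 independent repeats.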

[2] = test system: A549; test: MTT assay, A549; assay type: cell-based, human; settings: lung adenocarcinoma, 48 h incubation
Method in brief: (§2)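 MTT viability after 48 h exposure to compounds at final 5–50 µmol/L; formazan in 10% SDS read at 540 nm, IC50 fitted by nonlinear regression from at least three independent experiments.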

[3] = test system: Hep G2; test: MTT assay, Hep G2; assay type: cell-based, human; settings: hepatocellular carcinoma, 48 h incubation
Method in brief: as §2

[4] = test system: HeLa; test: MTT assay, HeLa; assay type: cell-based, human; settings: cervical adenocarcinoma, 48 h incubation
Method in brief: (§3)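 PATU 8902 and A2058 grown in DMEM, HCT116 and HeLa in RPMI 1640, both with 10% FBS; seeded 24 h before exposure to 5, 10, 20 and 50 µmol/L compound for 48 h. Viability by MTT, formazan dissolved in SDS, absorbance 540 nm; IC50 by nonlinear regression, ≥3 repeats.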

[5] = test system: HCT116; test: MTT assay, HCT116; assay type: cell-based, human; settings: colorectal adenocarcinoma, 48 h incubation
Method in brief: as §3

[6] = test system: PATU; test: MTT assay, PATU 8902; assay type: cell-based, human; settings: pancreas adenocarcinoma, 48 h incubation
Method in brief: as §3

[7] = test system: A2058; test: MTT assay, A2058; assay type: cell-based; settings: human melanoma, 48 h incubation
Method in brief: as §3

[8] = biological target: T1, bovine serum albumin (BSA) (Bos taurus, UniProt P02769); test: BSA fluorescence quenching (Stern–Volmer); assay type: binding
T1 construct: purchased Sigma-Aldrich
Source text: BSA contains 582 amino acid residues, including tyrosine (Tyr), phenylalanine (Phe), and tryptophan (Trp). The tryptophan residues located at positions 134 and 212 being predominantly responsible for its intrinsic fluorescence due to their higher quantum yield than the other amino acids. When excitation occurs at 280 nm, both Trp and Tyr contribute to the fluorescence of the protein [44]. In this study, we investigated the interaction of newly synthesized derivatives (7e·2HCl, 12d·2HCl, 13c·HCl, and 13d), which have promising anticancer properties, with BSA. BSA (1 μM) was titrated with increasing concentration of acridine derivatives, and fluorescence spectra were recorded in the range of 300–500 nm (Figure 10). The fluorescence quenching for the quencher (Q) and protein interaction was analyzed using the Stern–Volmer equation [45, 46]: F0/F=1+Ksv [Q]=1+Kq τ0[Q] where F0 and F denote the fluorescence intensities in the absence and presence of the quencher Q, respectively. Ksv is the Stern–Volmer constant, kq is the bimolecular quenching rate constant (kq = Ksv/τ0), and τ0 is the lifetime of BSA in the absence of quencher, which is equal to 10^−8 s for the tryptophan fluorescence of proteins.
The fluorescence spectra were recorded using a Varian Cary Eclipse spectrofluorometer (Palo Alto, CA, USA) in a 10 mM phosphate-buffered saline solution (pH = 7.4) at 24 °C. The spectra were measured with an excitation wavelength of 280 nm using a slit width of 10 nm for both the excitation and emission beams over a range of 300–450 nm. Spectrofluorometric BSA titrations were performed with increasing concentrations of acridine derivatives.

[9] = test system: MCF-10A; test: MTT assay, MCF-10A non-cancerous cells; assay type: cell-based, human; settings: non-cancerous epithelial breast cells, 48 h incubation
Method in brief: as §1

[10] = test system: A2780; test: MTT assay, A2780; assay type: cell-based, human; settings: Homo sapiens, A2780, 48 h, ovarian adenocarcinoma, 48 h incubation
Method in brief: as §2

T1 sequence (P02769 25-607): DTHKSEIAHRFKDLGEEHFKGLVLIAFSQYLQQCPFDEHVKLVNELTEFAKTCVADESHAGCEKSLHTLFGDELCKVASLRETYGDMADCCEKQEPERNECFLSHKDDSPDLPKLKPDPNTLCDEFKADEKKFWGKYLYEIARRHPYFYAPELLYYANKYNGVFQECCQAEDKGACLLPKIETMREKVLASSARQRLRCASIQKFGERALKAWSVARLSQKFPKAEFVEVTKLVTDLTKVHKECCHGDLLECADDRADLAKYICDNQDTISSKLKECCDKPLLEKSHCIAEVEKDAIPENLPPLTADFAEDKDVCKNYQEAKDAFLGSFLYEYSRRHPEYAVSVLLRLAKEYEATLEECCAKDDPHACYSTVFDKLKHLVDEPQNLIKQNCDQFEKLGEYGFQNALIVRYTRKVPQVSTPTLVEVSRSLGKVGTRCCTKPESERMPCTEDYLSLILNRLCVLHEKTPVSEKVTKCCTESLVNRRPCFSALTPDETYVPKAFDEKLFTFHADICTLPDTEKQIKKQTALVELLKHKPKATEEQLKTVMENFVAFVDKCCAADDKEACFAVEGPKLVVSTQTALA

SMILES	IC50 [1] [µM]	IC50 [2] [µM]	IC50 [3] [µM]	IC50 [4] [µM]	IC50 [5] [µM]	IC50 [6] [µM]	IC50 [7] [µM]	Stern–Volmer quenching constant Ksv ([8]; BSA 1 μM, excitation 280 nm, PBS pH 7.4, 24 °C)	bimolecular quenching rate constant kq ([8]; kq = Ksv/τ0, τ0 = 10^−8 s, BSA, pH 7.4, 24 °C)	IC50 [9] [µM]	IC50 ([1]; Homo sapiens, Fibroblast, 48 h) [µM]	IC50 ([2]; Homo sapiens, A549, 48 h) [µM]	IC50 ([3]; Homo sapiens, HepG2, 48 h) [µM]	IC50 [10] [µM]	IC50 ([4]; Homo sapiens, HeLa, 48 h) [µM]	IC50 ([5]; Homo sapiens, HCT-116, 48 h) [µM]	IC50 ([6]; Homo sapiens, PaTu 8902, 48 h) [µM]	IC50 ([7]; Homo sapiens, A2058, 48 h) [µM]	melting point	IC50 ([9]; Homo sapiens, MCF-10A, 48 h) [µM]
COc1cc(/C=C2\SC(=O)N(Cc3cccc4cc5ccccc5nc34)C2=O)ccc1OCC(=O)Nc1cc(OC)c(OC)c(OC)c1.Cl [13c·HCl, 2-(4-{[(5Z)-3-[(Acridin-4-yl)methyl]-2,4-dioxo-1,3-thiazolidin-5-ylidene]methyl}-2-methoxyphenoxy)-N-(3,4,5-trimethoxyphenyl)acetamide hydrochloride]	> 50	14.6 ± 3.3	23.4 ± 3.4	14.3 ± 6.4	> 50	> 50	> 50	10.58 × 10^4 [M^−1]	10.58 × 10^12 [M^−1·s^−1]											
COc1cc(NC(=O)COc2ccc(/C=C3\SC(=O)N(Cc4c5ccccc5nc5ccccc45)C3=O)cc2)cc(OC)c1 [Compound 7b, 2-(4-{[(5Z)-3-[(Acridin-9-yl)methyl]-2,4-dioxo-1,3-thiazolidin-5-ylidene]methyl}phenoxy)-N-(3,5-dimethoxyphenyl)acetamide]										28.8 ± 2.3	> 50	34.6 ± 5.4	> 50	> 50	11.3 ± 2.75	34.5 ± 2.98	> 50	> 50	280 to 282 °C	
COc1cc(/C=C2\SC(=O)N(Cc3cccc4cc5ccccc5nc34)C2=O)ccc1OCC(=O)Nc1cc(OC)c(OC)c(OC)c1 [Compound 13c, 2-(4-{[(5Z)-3-[(Acridin-4-yl)methyl]-2,4-dioxo-1,3-thiazolidin-5-ylidene]methyl}-2-methoxyphenoxy)-N-(3,4,5-trimethoxyphenyl)acetamide]		> 50	> 50	44.2 ± 4.1	23.1 ± 5.7						> 50			> 50			> 50	42.5 ± 0.25	228 to 230 °C (dec.)	> 50
COc1cc(/C=C2\SC(=O)N(Cc3c4ccccc4nc4ccccc34)C2=O)ccc1OCC(=O)Nc1ccccc1C(F)(F)F [Compound 12e, 2-(4-{[(5Z)-3-[(Acridin-9-yl)methyl]-2,4-dioxo-1,3-thiazolidin-5-ylidene]methyl}-2-methoxyphenoxy)-N-[2-(trifluoromethyl)phenyl]acetamide]				28.2 ± 3.7	14.3 ± 1.8						> 50	31.1 ± 4.2	> 50	> 50			> 50	> 50	255 to 256 °C	> 50
COc1cc(/C=C2\SC(=O)N(Cc3cccc4cc5ccccc5nc34)C2=O)ccc1OCC(=O)Nc1ccccc1 [Compound 13a, 2-(4-{[(5Z)-3-[(Acridin-4-yl)methyl]-2,4-dioxo-1,3-thiazolidin-5-ylidene]methyl}-2-methoxyphenoxy)-N-phenylacetamide]											> 50	> 50	> 50	> 50	41.9 ± 5.7	> 50	> 50	49.1 ± 0.85	213 to 214 °C	> 50
COc1cc(/C=C2\SC(=O)N(Cc3c4ccccc4nc4ccccc34)C2=O)ccc1OCC(=O)Nc1cc(OC)c(OC)c(OC)c1 [Compound 12c, 2-(4-{[(5Z)-3-[(Acridin-9-yl)methyl]-2,4-dioxo-1,3-thiazolidin-5-ylidene]methyl}-2-methoxyphenoxy)-N-(3,4,5-trimethoxyphenyl)acetamide]					15.1 ± 2						> 50	> 50	> 50	> 50	19.9 ± 2.05		> 50	> 50	268 to 269 °C	> 50
O=C(COc1ccc(/C=C2\SC(=O)N(Cc3cccc4cc5ccccc5nc34)C2=O)cc1)Nc1ccccc1C(F)(F)F [Compound 8e, 2-(4-{[(5Z)-3-[(Acridin-4-yl)methyl]-2,4-dioxo-1,3-thiazolidin-5-ylidene]methyl}phenoxy)-N-[2-(trifluoromethyl)phenyl]acetamide]					24.3 ± 3.8						> 50	> 50	> 50	> 50	43.3 ± 5.2		> 50	> 50	205 to 206 °C (dec.)	> 50
COc1cc(/C=C2\SC(=O)N(Cc3cccc4cc5ccccc5nc34)C2=O)ccc1OCC(=O)Nc1cc(C(F)(F)F)cc(C(F)(F)F)c1 [Compound 13g, 2-(4-{[(5Z)-3-[(Acridin-4-yl)methyl]-2,4-dioxo-1,3-thiazolidin-5-ylidene]methyl}-2-methoxyphenoxy)-N-[3,5-bis(trifluoromethyl)phenyl]acetamide]					24.9 ± 3.5						> 50	> 50	> 50	> 50	17.7 ± 2.9		> 50	> 50	249 to 250 °C	> 50
COc1cc(NC(=O)COc2ccc(/C=C3\SC(=O)N(Cc4cccc5cc6ccccc6nc45)C3=O)cc2)cc(OC)c1OC [Compound 8c, 2-(4-{[(5Z)-3-[(Acridin-4-yl)methyl]-2,4-dioxo-1,3-thiazolidin-5-ylidene]methyl}phenoxy)-N-(3,4,5-trimethoxyphenyl)acetamide]											> 50	> 50	> 50	> 50	> 50	> 50	> 50	> 50	193 to 194 °C (dec.)	> 50
O=C(COc1ccc(/C=C2\SC(=O)N(Cc3cccc4cc5ccccc5nc34)C2=O)cc1)Nc1ccc([N+](=O)[O-])cc1 [Compound 8d, 2-(4-{[(5Z)-3-[(Acridin-4-yl)methyl]-2,4-dioxo-1,3-thiazolidin-5-ylidene]methyl}phenoxy)-N-(4-nitrophenyl)acetamide]											> 50	> 50	> 50	> 50	44.9 ± 4.2	47.6 ± 3.8	> 50	> 50	> 300 °C (dec.)	> 50
COc1cc(/C=C2\SC(=O)N(Cc3cccc4cc5ccccc5nc34)C2=O)ccc1OCC(=O)Nc1cccc(C(F)(F)F)c1 [Compound 13f, 2-(4-{[(5Z)-3-[(Acridin-4-yl)methyl]-2,4-dioxo-1,3-thiazolidin-5-ylidene]methyl}-2-methoxyphenoxy)-N-[3-(trifluoromethyl)phenyl]acetamide]					36.3 ± 4.6						> 50	> 50	> 50	> 50	21.8 ± 6.4		> 50	31.9 ± 4.1	203 to 205 °C	28.9 ± 5.6
O=C(COc1ccc(/C=C2\SC(=O)N(Cc3cccc4cc5ccccc5nc34)C2=O)cc1)Nc1ccccc1 [Compound 8a, 2-(4-{[(5Z)-3-[(Acridin-4-yl)methyl]-2,4-dioxo-1,3-thiazolidin-5-ylidene]methyl}phenoxy)-N-phenylacetamide]				21.1 ± 7.2							> 50	> 50	> 50	> 50		26.9 ± 1.85	> 50	> 50	258 to 259 °C (dec.)	> 50
